Experimental data as given in patent publication US20030134901A1, “Lipoxin compounds and their use in treating cell proliferative disorders” (priority 1993, published 2003).

How the values were obtained:
A549 cells = experiment: A549 cell proliferation, MTT assay; format: cell-based, human; conditions: for % inhibition: 10^−7 M, 72 hours at 37° C., mean ± SEM, 3 to 7 experiments
Experimental: A microculture 3,(4,5-dimethylthiazoyl-2-yl) 2,5 (diphenyl-tetrazolium bromide) (MTT) assay, (Marshall, N. J., et al. (1995) A critical assessment of the use of microculture tetrazolium assays to measure cell growth and function. Growth Regul. 5: 69-84.), was used to examine the actions of LXs and other eicosanoids on cell proliferation. A549 cells and fibroblasts from exponential-phase maintenance cultures were counted and dispensed within replicate 96-well culture plates in 100 μl volumes of medium (˜2000 cells/well). Following 24 hours at 37° C., the culture medium was removed, and fresh medium (100 μl) containing either the compounds (5-1000 nM) or vehicle (medium plus 0.15% ethanol) was added to 4 replicates for each condition studied and the culture plates were then incubated for up to 96 hours at 37° C. in a 5% CO2 atmosphere. At the end of this period, 25 μl of freshly prepared MTT in HBSS (5 mg/ml) was added to the wells and the plates were incubated for 4 hours at 37° C. Dye solution was aspirated, wells were washed once with HBSS and dye taken up by the cells was extracted in 100 μl of isopropyl alcohol:1 N HCl (96:4, v/v) and quantitated at 570 nm using a microplate reader (Molecular Devices, Menlo Park, Calif.). In some experiments, cells were grown in 12-well culture plates, treated as above and enumerated using a Neubauer hemocytometer. Viability was assessed routinely using trypan blue exclusion assay. For the A549 cells and fibroblasts, a linear relation was established for the MTT values and cell number within the range of the experiments shown (r=0.995, P<0.005). A549 cells grown for 72 hours in the presence of the compounds (5-1000 nM) or vehicle (0.15% EtOH) were lysed with 0.25 N NaOH and the cellular protein content was determined by applying the Bio-Rad (Richmond, Calif.) microassay method using bovine serum albumin as standard. The mean cellular protein content in resting A549 cells was 46.6±1.5 pg/cell.

[1] = target: T1, LXA4 specific binding sites of differentiated HL-60 cells (Homo sapiens, UniProt P25090); experiment: 3H-LXA4 specific binding to differentiated HL-60 cells; conditions: for displacement of 3H-LXA4 specific binding: competition, competitor 300 nM where printed
T1 construct: endogenous in cells; host or cells: HL-60 cells differentiated with DMSO, retinoic acid or PMA; intact cells
T1 sequence (P25090 1-351): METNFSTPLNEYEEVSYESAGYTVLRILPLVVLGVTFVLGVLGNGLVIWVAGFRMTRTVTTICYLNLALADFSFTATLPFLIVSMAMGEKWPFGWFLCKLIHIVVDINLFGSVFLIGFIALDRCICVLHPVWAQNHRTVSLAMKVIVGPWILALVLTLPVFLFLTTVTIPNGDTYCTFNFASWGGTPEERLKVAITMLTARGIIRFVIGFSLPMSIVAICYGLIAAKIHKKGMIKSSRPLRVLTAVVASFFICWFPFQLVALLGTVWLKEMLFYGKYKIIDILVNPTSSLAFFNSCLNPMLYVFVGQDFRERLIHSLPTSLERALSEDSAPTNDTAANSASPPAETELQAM
Experimental: Preparation of [11,12-^3H]LXA4. Tritiation of 11,12-acetylenic LXA4 methyl ester was carried out under a custom tritiation service (NET-259:92-2326) by New England Nuclear (Boston, Mass.). Briefly, 11,12-acetylene methyl ester was characterized by UV absorbance and reverse-phase HPLC as in (Nicolaou, K. C. et al. (1985) J. Am. Chem. Soc. 107:7515) and exposed to tritium atmosphere in methylene chloride at room temperature. This incubation was stirred in the presence of Lindlar catalyst (1.0 mg from Fluka Chemicals) for˜1 h. The resulting mixture was stored in methanol and isolated using RP-HPLC. Tritiated products were chromatographed as methyl esters utilizing a gradient HPLC system equipped with a photodiode array rapid spectral detector (Serhan, C. N., Methods in Enzymology: Arachidonate Related Lipid Mediators, in Murphy R. C., Fitzpatrick, F. (eds.), vol. 187. Orlando, Fla., Academic, (1990), p. 167). This mixture contained both [11,12-^3H]LXA4 and [11,12-^3H]-11-trans-LXA4 methyl esters (˜1:3 ratio) as determined by coelution with synthetic standards. After RP-HPLC, fractions containing [11,12-^3H]LXA4 were collected, and extracted into ethyl acetate. The free acid was prepared by LiOH saponification (Fiore, S. et al. (1992) J. Biol. Chem. 267:16168). Material from these fractions, when injected into UV-electrochemical detection HPLC, gave greater than 90% of radioactivity associated with a tetraene-containing product that coeluted with synthetic LXA4. Materials that eluted with the retention time of authentic LXA4 in two HPLC systems were taken for binding experiments. The specific activity calculated for [11,12-^3H]LXA4 was 40.5 Ci/mmole.
Cell cultures and differentiation. HL-60 cells were seeded in RPMI medium supplemented with 100 U/ml penicillin, 100 μg/ml streptomycin, and 10% fetal calf serum (Hyclone, Logan, Utah), incubated at 37° C. with 5% CO2 atmosphere in 250 ml flasks. Individual flasks containing ˜[…] next received dimethyl sulfoxide (DMSO) (1.12% v/v, 120 h) or retinoic acid (RA) (1 μM, 120 h) or phorbol myristate acetate (PMA) (20 nM, 48 h). Before performing binding assays, cells were washed twice in phosphate buffered saline (PBS), Ca^2+- and Mg^2+-free, enumerated and suspended at 20×10^6 cells/ml in Tris buffer (10 mM), pH 7.4 (Fiore, S. et al.(1992) J. Biol. Chem. 267:16168). Nitro blue tetrazolium reduction was performed to monitor induction of polymorphonuclear phenotype as in (Imaizumi, M. and Breitman, T. R. (1986) Blood 67:1273), and cell adherence was determined for induction of macrophage-like phenotype (Collins, S. J. (1987) Blood 70:1273). Human umbilical vein endothelial cells (HUVEC) maintained in culture third passage were obtained from Dr. M. Gimbrone (Brigham and Women's Hospital Department of Pathology).
Ligand binding. ^3H-LXA4 and ^3H-LTB4 binding was performed essentially as in Fiore, S. et al.(1992) J. Biol. Chem. 267:16168. After suspending cells in Tris buffer 10 mM (pH 7.4, Ca^2+ 2.5 mM, Mg^2+ 1.2 mM), aliquots (0.5 ml) were incubated (20 min at 4° C.) with ^3H- ligands alone (0.3 nM) or in the presence of increasing concentrations of homoligands or other compounds (3-300 nM). The incubations were rapidly centrifuged (60 sec, 12,000 g) on silicon oil (d=1.028), and cell-associated radioactivity was determined by liquid scintillation counting (Wallac 1409, Pharmacia, Piscataway, N.J.). Binding experiments with HUVEC cells were performed in 12 well plates with 3.5×10^5 cells/well. After 10 min, wells were washed twice with PBS and cell-associated label was recovered by adding glacial acetic acid (0.5 ml). Results obtained from these assays were submitted for further analysis using the Ligand program (Elsevier-Biosoft, Cambridge, UK).

PMA-treated HL-60 cells = experiment: Lipoxin metabolism / bio-half-life assay with phorbol ester-treated HL-60 cells; format: in vitro ADME, human; conditions: at times up to two hours
Experimental: HL-60 cells were purchased from American Type Culture Collection (Rockville, Md.), and other cell culture reagents were from GIBCO (Grand Island, N.Y.). Versene (EDTA) was from Whittaker Bioproducts (Walkersville, Md.). Synthetic 11,12-acetylenic LXA4 methyl ester and LXs were from Cascade Biochemical (Reading, U.K.). 15(S)-15-m-PGE1, PGE1, and 5-HETE were from Cayman Chemical Co. (Ann Arbor, Mich.). [11,12-^3H]LXA4 was prepared from 11,12-acetylenic LXA4 using Lindlar catalyst as a custom tritiation (NET-259, lot 0 2793-275, New England Nuclear, Boston, Mass.). Tritiated products were isolated using RP-HPLC (Fiore et al. (1992) J. Biol. Chem. 267:16168; Serhan, C. N. (1990) Meth. Enzymol. 187:167). Methoxyamine and NAD were from Sigma Chemical Company (St. Louis, Mo.). Manganese dioxide and Adams reagent were from Aldrich Chemical Co. (Milwaukee, Wis.).
Human PMN were obtained from healthy volunteers by gradient centrifugation of heparinized fresh venous blood (Böyum, A. ([…]) Scand. J. Clin. Lab. Invest. 21:77). HL-60 cells were seeded in RPMI supplemented with penicillin (100 U/ml), streptomycin (100 μ/ml), fetal bovine serum (10%) (Hyclone, Logan, Utah) and incubated (37° C. with 5% CO2 atmosphere) in plastic 250 ml flasks. Individual flasks containing […] HL-60 cells/ml were incubated in the presence or absence of phorbol 12-myristate 13-acetate (PMA) (10 or 16 nM, 24-27 h) and adherence was monitored for induction of macrophage-like phenotype as in Collins, S. J. (1987) Blood 70:1233. […]
Incubations with eicosanoids were stopped with cold methanol containing either PGB2 or 5-HETE as internal standards (5-HETE was used when 15-oxo-ETE was quantified). […] Formation of 15-oxo-ETE by 100,000 g supernatants (cf. Agins, A. P. et al. (1987) Agents Actions 21:397; Xun, C-Q. et al.(1991) Biochem. J. 279:553; and Sok, D-E. et al. (1988) Biochem. Biophys. Res. Commun. 156:524) was quantified after RP-HPLC using an ODS column (4.6 mm×25 cm) eluted with methanol/H2O/acetic acid (70:30:0.01, v/v/v) monitored at 280 nm with a flow rate of 1 ml/min. […] On-line spectra were recorded using a diode array detector (Hewlett-Packard 1040M series II) equipped with HPLC^3D ChemStation software (DOS series). […]
The “bio-half-life” of compounds 1-8 was assessed using phorbol ester-treated human promyelocytic leukemia (HL-60) cells as described in Example 2. […]

Compound | % inhibition (A549 cells) [%] | displacement of 3H-LXA4 specific binding [1] | also measured
CCCCC[C@@H](O)/C=C/C=C\C=C\C=C\C(O)C(O)CCCC(=O)O (stereo in doubt) [15-epi-LXA4, 15R-5,6,15-trihydroxy-7,9,13-trans-11-cis-eicosatetraenoic acid] | 20.1 ± 1.9 |  | inhibition of A549 cell growth compared with LXA4 (A549 cells; equimolar levels (100 nM)): to a similar extent as LXA4
CCCCC[C@@H](O)C(O)/C=C/C=C/C=C\C=C\C(O)CCCC(=O)O (stereo in doubt) [15-epi-LXB4, 15R-5,14,15-trihydroxy-6,10,12-trans-8-cis-eicosatetraenoic acid] | 79.3 ± 0.3 |  | inhibition proliferation (A549 cells; equimolar levels (100 nM), Table 1): ~80%
CCCCC/C=C\C\C=C/C=C/C=C/[C@@H](SC[C@H](NC(=O)CC[C@H](N)C(=O)O)C(=O)NCC(=O)O)[C@@H](O)CCCC(=O)O [LTC4] |  |  | decrease of 3H-LXA4 specific binding ([1]; added in 3 log molar excess): ~30%
COc1ccc(/C=C/CCCCOc2cccc(OCCCCC(=O)O)c2CCC(=O)O)cc1 [ONO-4057] |  | did not displace | 
cyclohexyl-LXA4 [compound 4] |  |  | recovery in the incubation medium (bio-half-life) (PMA-treated HL-60 cells): quantitatively recovered
trihydroxyheptanoic acid (methyl ester) |  | Neither LXB4, LTB4, nor trihydroxyheptanoic acid (methyl ester) (300 nM) were able to displace | 
